Earlier results in patent publication US10995093B2, “Synthesis of 2′-fluoro-6′-methylene-carbocyclic adenosine (FMCA) and 2′-fluoro-6′methylene-carbocyclic guanosine (FMCG)” (UNIVERSITY OF GEORGIA RESEARCH FOUNDATION, INC., priority 2016, dated 2021).
Entries after “also recorded” stand apart in the source; their conditions may differ.

Columns and labels:
[1] = system: wild-type HBV
[2] = system: lamivudine, adefovir, and double lamivudine/entecavir-resistant mutants; conditions: drug-resistant mutants
[3] = system: lamivudine/entecavir-resistant clone (L180M+M204V+S202G)
[4] = no significant toxicity observed up to 100 μM

**Q.** Which results are given for `C=C1[C@@H](n2cnc3c(N)ncnc32)[C@@H](F)[C@H](O)[C@H]1CO` [FMCA, (1R,3R,5R)-3-(6-amino-9H-purin-9-yl)-2-fluoro-5-(hydroxymethyl)-4-methylenecyclopentanol]?
**A.** activity against wild-type HBV [1]: significant activity; also recorded: potential antiviral activity; activity against lamivudine, adefovir, and double lamivudine/entecavir-resistant mutants [2]: significant activity; antiviral activity against lamivudine/entecavir-resistant clone [3]: potential antiviral activity; mitochondrial and cellular toxicity, concentration up to which no significant toxicity was observed [4]: > 100 µM
